Measurements: patent publication US9322066B2, “Predictors for cancer treatment” (priority 2011, dated 2016)

Tested on: relapsed or refractory, rituximab-naive or -sensitive follicular B-cell NHL
Assay: Overall response rate (CR+CRu+PR), Vc-R vs rituximab study, by biomarker
Format: in vivo, human
Details: Biomarker positive (PSMB1 P11A heterozygote and CD68 Low)
Excerpt: Non-Hodgkin lymphoma (NHL) encompasses several unique malignant lymphoid disease entities that vary in clinical behavior, morphologic appearance, immunologic, and molecular phenotype. […] A randomized, open-label, active-controlled, multicenter, multinational, prospective study to compare the efficacy and safety of the combination of bortezomib and rituximab (Vc-R) to single-agent rituximab in subjects who have relapsed or refractory, rituximab-naive or -sensitive follicular B-cell NHL was performed.
Subjects were centrally randomized to Treatment Groups A (Vc-R) or B (rituximab) in a 1:1 ratio taking into account the following stratification factors: • Follicular Lymphoma International Prognostic Index (FLIPI) score (low [0 or 1 factor], intermediate [2 factors], high [≧3 factors]); • Prior rituximab therapy (yes, no); • Time since last dose of anti-lymphoma therapy (≦1 year, >1 year); • Region (United States/Canada, European Union, Rest of World). […]
Comparison of the response rates between the treatment groups was conducted using the Fishers Exact Test. Duration of response, time to response, and time to clinical relapse were analyzed descriptively, where appropriate, and the biomarker subset was compared (if appropriate, determined as per the initial analysis) to the overall clinical cohort, by treatment group and overall. […]

**Q.** Which overall response rate does the source give for rituximab here?
**A.** 47.5%
